Data set [1] has as its target T1, Prostaglandin E2 receptor EP1 subtype (Homo sapiens, UniProt P34995).
T1 sequence (P34995 whole entry): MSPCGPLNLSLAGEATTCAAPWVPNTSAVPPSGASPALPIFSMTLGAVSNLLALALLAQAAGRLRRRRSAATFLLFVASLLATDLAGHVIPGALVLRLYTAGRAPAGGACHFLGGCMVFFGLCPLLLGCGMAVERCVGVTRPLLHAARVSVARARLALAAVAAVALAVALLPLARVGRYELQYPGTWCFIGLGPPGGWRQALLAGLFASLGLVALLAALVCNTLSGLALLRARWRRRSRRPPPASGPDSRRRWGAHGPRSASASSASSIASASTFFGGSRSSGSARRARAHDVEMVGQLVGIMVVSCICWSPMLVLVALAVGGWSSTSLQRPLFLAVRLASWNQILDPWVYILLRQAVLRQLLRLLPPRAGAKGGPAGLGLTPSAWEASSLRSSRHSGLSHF
Briefly: Displacement of [3H]PGE2 from human recombinant EP1 receptor expressed in CHOK1 cell membrane. It counts as cell membranes, CHO-K1. A general note: Loss of bound radioactivity is the signal in a displacement assay; it reports binding, not function.

Data set [2] can be described thus: Cmax in rat at 3 mg/kg, po. It counts as ADME, organism-based. Also noted: dose 3 mg/kg, route oral. The following applies: in vivo.
The nature of data set [3]: Tmax in rat at 3 mg/kg, po. The following applies: in vivo. Also on record: dose 3 mg/kg, route oral. Format: ADME, organism-based.
The subject of data set [4] is Rattus norvegicus. Nature of the data set: Normalized AUC (0 to t) in rat at 3 mg/kg, po. Format: ADME, organism-based. Also noted: dose 3 mg/kg, route oral. As to conditions: in vivo.
The subject of data set [5] is Rattus norvegicus. Nature of the data set: Reversal of hypersensitivity in FCA rat model of inflammatory pain at 5 mg/kg, po. Format: functional.

As to `Cc1ccc(-c2cc(Br)ccc2OCc2ccc(F)cc2F)n1-c1cc(C(=O)O)c2ccccc2c1`, the IC50 (as a rule, the concentration that inhibits the measured activity by half) in data set [1] is 2.51 nM.
On to `Cc1ccc(-c2cc(Cl)ccc2OCc2ccccc2)n1-c1cc(C(=O)O)c2ccccc2c1`, for which the Cmax (usually the peak of the concentration-time curve) in data set [2] came out at 220 nM. Besides, in data set [3], the time of peak concentration (Tmax) (usually the time at which the peak concentration occurs) was 240 min. Moreover, the AUC/dose with Rattus norvegicus [4] turned out to be 9 kg·min/L. The IC50 in data set [1] was 6.31 nM.
In the case of `Cc1ccc(-n2c(C)ccc2-c2cc(Br)ccc2OCc2ccc(F)cc2F)cc1C(=O)O`, the half-maximal inhibitory concentration (IC50) in data set [1] is 1.26 nM.
Still for that read-out and setting: the result for `Cc1ccc(-c2cc(Cl)ccc2OCc2ccccc2)n1-c1cc(C(=O)O)c2cc[nH]c2c1` reads 1.26 nM; that for `Cc1ccc(OCc2ccc(F)cc2)c(-c2ccc(C)n2-c2cc(N)c(C)c(C(=O)O)c2)c1`, 15.8 nM.
The same measure, in the same setting: the result for `Cc1c(N)cc(-n2c(C)ccc2-c2cc(Br)ccc2OCc2ccccc2)cc1C(=O)O` reads 3.16 nM.
In the case of `Cc1ccc(-c2cc(C(F)(F)F)ccc2OCc2ccccc2)n1-c1ccc(F)c(C(=O)O)c1`, in the data set on Rattus norvegicus [5], the Activity is 56%. Moreover, the Cmax in data set [2] turned out to be 870 nM. Besides, the time to peak (Tmax) in data set [3] stood at 36 min. For the same compound, the AUC/dose in the data set on Rattus norvegicus [4] amounted to 27 kg·min/L. Besides, the half-maximal inhibitory concentration (IC50) in data set [1] was 2 nM.
For `Cc1ccc(-c2cc(Br)ccc2OCc2ccccc2)n1-c1cc(C(=O)O)c2ccccc2c1`, the IC50 in data set [1] is 12.6 nM.
`Cc1ccc(-c2cc(Br)ccc2OCc2ccc(F)cc2)n1-c1cc(C(=O)O)c2ccccc2c1` gave a peak concentration (Cmax) in data set [2] of 520 nM. Further, in data set [3], the time of peak concentration (Tmax) was 30 min. In the data set on Rattus norvegicus [4], this compound gave an AUC/dose of 9 kg·min/L. Besides, the IC50 in data set [1] is 5.01 nM.
On to `Cc1ccc(-c2cc(Br)ccc2OCc2ccccc2)n1-c1ccc(OC(F)F)c(C(=O)O)c1`, for which the IC50 in data set [1] is 5.01 nM.
Same read-out and setting: the result for `Cc1ccc(-c2cc(Br)ccc2OCc2ccc(F)cc2F)n1-c1ccc(OC(F)F)c(C(=O)O)c1` reads 0.631 nM.
In turn, `COc1ccc(-n2c(C)ccc2-c2cc(Br)ccc2OCc2ccc(F)cc2F)cc1C(=O)O` showed a Cmax in data set [2] of 340 nM. For the same compound, in data set [3], the Tmax amounted to 30 min. In addition, in the data set with Rattus norvegicus [4], the AUC/dose came to 4 kg·min/L. Besides, the IC50 in data set [1] is 0.398 nM.
With `Cc1c(N)cc(-n2c(C)ccc2-c2cc(Cl)ccc2OCc2ccccc2)cc1C(=O)O`, in the data set on Rattus norvegicus [5], the Activity came out at 35%. Moreover, the peak level in data set [2] (Cmax) was 2940 nM. Also, in data set [3], the Tmax was found to be 30 min. For the same compound, the AUC/dose in the data set with Rattus norvegicus [4] was 39 kg·min/L. Besides, the IC50 in data set [1] is 2 nM.
`Cc1ccc(-c2cc(Br)ccc2OCc2ccc(F)cc2)n1-c1ccc(OC(F)F)c(C(=O)O)c1`: the concentration for half-maximal inhibition (IC50) in data set [1] is 2 nM.
`Cc1c(N)cc(-n2c(C)ccc2-c2cc(C(F)(F)F)ccc2OCc2ccc(F)cc2)cc1C(=O)O`: the half-inhibitory concentration (IC50) in data set [1] was 3.98 nM.
Regarding `CC(=O)Nc1ccc(-n2c(C)ccc2-c2cc(Br)ccc2OCc2ccc(F)cc2F)cc1C(=O)O`, the IC50 in data set [1] is 0.398 nM.
The same measure, in the same setting: next, `Cc1ccc(-c2cc(C(F)(F)F)ccc2OCc2ccc(F)cc2)n1-c1ccc(F)c(C(=O)O)c1`: 7.94 nM; `Cc1ccc(-c2cc(Br)ccc2OCc2ccc(F)cc2)n1-c1ccc(F)c(C(=O)O)c1`: 1.26 nM.
With `Cc1ccc(OCc2ccc(F)cc2)c(-c2ccc(C)n2-c2ccc(F)c(C(=O)O)c2)c1`, in data set [1], the IC50 is 15.8 nM.
Same read-out and setting: next, `Cc1ccc(-c2cc(Br)ccc2OCc2ccc(F)cc2)n1-c1ccc(Cl)c(C(=O)O)c1`: 2.51 nM.
For the compound `Cc1ccc(OCc2ccc(F)cc2)c(-c2ccc(C)n2-c2cc(C(=O)O)c3ccccc3c2)c1`, the half-inhibitory concentration (IC50) in data set [1] is 79.4 nM.
Same read-out and setting: the result for `Cc1ccc(-n2c(C)ccc2-c2cc(Cl)ccc2OCc2ccc(F)cc2F)cc1C(=O)O` reads 2.51 nM; that for `Cc1ccc(-c2cc(Br)ccc2OCc2ccc(F)cc2F)n1-c1ccc(O)c(C(=O)O)c1`, 2 nM.
On to `Cc1c(N)cc(-n2c(C)ccc2-c2cc(Br)ccc2OCc2ccc(F)cc2)cc1C(=O)O`, for which the Activity in the data set with Rattus norvegicus [5] is given as 50%. Also, the Cmax in data set [2] was 1350 nM. For the same compound, the Tmax in data set [3] was found to be 66 min. In the data set with Rattus norvegicus [4], this compound had an AUC/dose of 52 kg·min/L. Moreover, in data set [1], the IC50 was 0.794 nM.
As to `Cc1ccc(-c2cc(F)ccc2OCc2ccc(F)cc2)n1-c1cc(C(=O)O)c2ccccc2c1`, the IC50 in data set [1] is 25.1 nM.
The same measure, in the same setting: the result for `Cc1ccc(-c2cc(F)ccc2OCc2ccc(F)cc2)n1-c1ccc(F)c(C(=O)O)c1` reads 12.6 nM.

(Values after ChEMBL document CHEMBL1144577, “1,5-Biaryl pyrrole derivatives as EP1 receptor antagonists. Structure-activity relationships of 6-substituted and 5,6-disubstituted benzoic acid derivatives” (Bioorg Med Chem Lett, 2007).)
